Measurements taken from patent publication US7291740B2, “5-[4-[2-(N-methyl-N-(2-pyridyl)amino)ethoxy]benzyl]thiazolidine-2,4-dione Mesylate salt” (SmithKline Beecham p.l.c., priority 2000, dated 2007).
Like-named read-outs stand apart in the source and are kept apart here.

Test: Solubility of the Mesylate in water (aliquot addition until the powder dissolved)
Format: physicochemical
Text: The visual solubility was confirmed by an HPLC assay of a saturated solution.

| SMILES | Solubility (water, visual dissolution (Form IV confirmed by HPLC assay of a saturated solution)) [mg/mL] | Solubility [mg/mL] |
| --- | --- | --- |
| CN(CCOc1ccc(CC2SC(=O)NC2=O)cc1)c1ccccn1.CS(=O)(=O)O (stereo not shown) [Example 1, 5-[4-[2-(N-methyl-N-(2-pyridyl)amino)ethoxy]benzyl]thiazolidine-2,4-dione methanesulfonate Form I] | > 100 |  |
| CN(CCOc1ccc(CC2SC(=O)NC2=O)cc1)c1ccccn1.CS(=O)(=O)O (stereo not shown) [Example 3, 5-[4-[2-(N-methyl-N-(2-pyridyl)amino)ethoxy]benzyl]thiazolidine-2,4-dione methanesulfonate Form II] |  | > 100 |
| CN(CCOc1ccc(CC2SC(=O)NC2=O)cc1)c1ccccn1.CS(=O)(=O)O (stereo not shown) [Example 4, 5-[4-[2-(N-methyl-N-(2-pyridyl)amino)ethoxy]benzyl]thiazolidine-2,4-dione methanesulfonate Form III] |  | > 100 |
| CN(CCOc1ccc(CC2SC(=O)NC2=O)cc1)c1ccccn1.CS(=O)(=O)O (stereo not shown) [Example 11, 5-[4-[2-(N-methyl-N-(2-pyridyl)amino)ethoxy]benzyl]thiazolidine-2,4-dione methanesulfonate Form IV] |  | > 100 |
